Measured values from article PMC7667546 (Iranian Journal of Pharmaceutical Research : IJPR, 2020).
≈ marks a conversion by molar mass, not a printed value. Where “and” joins values, the source holds several entries; their conditions need not be identical. Identical values can stand only once. Counter-ions that a name gives are not always drawn. Like-named read-outs stand apart in the source and are kept apart here.

Assays:
tyrosinase = assay: Tyrosinase inhibition in vitro; type: biochemical, mushroom; settings: N.A. = not active; for Inhibition (%) Tyrosinase: 10µg/mL, mean ± S.D. of three measurements; for Equivalent Tyrosinase (µg kojic acid activity/mg compound): mean ± S.D.
Excerpt: (§1) Details of all biological activity and molecular modeling studies are given as supplementary material. The enzyme activities of the extracts were studied by observing urease, tyrosinase acetyl- and butyryl-cholinesterase inhibition activities ([22]-[25]). The ligands were then applied with partial atomic charges derived by ﬁtting Antechamber obtained by electronic structure calculation module in AMBER and assigned the AM1-BCC charges ([26]-[29]).

[1] = molecular target: T1, butyrylcholinesterase (BChE) (Homo sapiens, UniProt P06276); assay: Butyrylcholinesterase inhibition in vitro; type: biochemical; settings: for IC50: assayed at 100-0.1 µg/mL, mean ± S.D.; for inhibition at 10 µg/mL: read-out: Inhibition (%) BChE
T1 construct: purchased Sigma-Aldrich (Steinheim, Germany)
T1 sequence (P06276 29-602): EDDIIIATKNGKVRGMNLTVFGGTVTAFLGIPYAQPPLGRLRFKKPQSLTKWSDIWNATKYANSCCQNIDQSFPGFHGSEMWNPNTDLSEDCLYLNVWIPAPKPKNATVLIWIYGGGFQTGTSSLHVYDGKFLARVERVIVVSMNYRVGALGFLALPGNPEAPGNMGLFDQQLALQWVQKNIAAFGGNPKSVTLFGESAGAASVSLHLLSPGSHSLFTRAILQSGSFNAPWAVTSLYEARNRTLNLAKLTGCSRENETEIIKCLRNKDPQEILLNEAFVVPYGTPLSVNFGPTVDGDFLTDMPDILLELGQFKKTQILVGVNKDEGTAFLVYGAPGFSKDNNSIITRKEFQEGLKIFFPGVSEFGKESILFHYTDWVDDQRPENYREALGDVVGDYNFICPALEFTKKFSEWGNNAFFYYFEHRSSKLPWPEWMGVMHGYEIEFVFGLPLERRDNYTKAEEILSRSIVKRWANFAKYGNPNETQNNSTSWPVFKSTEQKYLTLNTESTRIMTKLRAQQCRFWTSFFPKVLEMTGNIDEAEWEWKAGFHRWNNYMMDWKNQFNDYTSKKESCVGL
Procedure: as §1
(§2) All compounds were assayed in-vitro against AChE and BChE at 100-0.1 µg/mL.

[2] = molecular target: T2, acetylcholinesterase (AChE) (Homo sapiens, UniProt P22303); assay: biochemical; settings: for inhibition at 10 µg/mL: read-out: Inhibition (%) AChE
T2 construct: purchased Sigma-Aldrich (Steinheim, Germany)
T2 sequence (P22303 32-614, species assumed): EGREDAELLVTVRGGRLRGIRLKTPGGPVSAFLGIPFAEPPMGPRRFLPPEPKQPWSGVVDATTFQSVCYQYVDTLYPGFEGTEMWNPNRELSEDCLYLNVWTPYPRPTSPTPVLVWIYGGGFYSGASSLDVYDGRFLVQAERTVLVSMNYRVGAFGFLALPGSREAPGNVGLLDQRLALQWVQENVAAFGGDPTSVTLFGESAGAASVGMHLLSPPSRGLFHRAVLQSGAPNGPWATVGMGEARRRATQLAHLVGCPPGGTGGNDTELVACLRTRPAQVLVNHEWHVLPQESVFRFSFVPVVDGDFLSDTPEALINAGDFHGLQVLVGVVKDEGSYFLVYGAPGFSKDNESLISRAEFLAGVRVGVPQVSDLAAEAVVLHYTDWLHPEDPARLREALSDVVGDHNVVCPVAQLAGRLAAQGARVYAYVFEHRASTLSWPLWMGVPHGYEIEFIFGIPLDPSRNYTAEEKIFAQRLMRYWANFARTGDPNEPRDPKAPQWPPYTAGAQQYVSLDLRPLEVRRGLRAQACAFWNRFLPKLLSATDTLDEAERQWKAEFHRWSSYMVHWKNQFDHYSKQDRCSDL
Procedure: as §1, §2

urease = molecular target: T3, urease (Canavalia ensiformis, UniProt P07374); assay: biochemical; set-up: species or system Canavalia ensiformis (Jack bean); settings: N.A. = not active; for Inhibition (%) Urease: 10µg/mL; for Inhibition (%) Urease / inhibition at 10 µg/mL: mean ± S.D. of three measurements; for Equivalent Urease (µg thiourea activity/mg compound): mean ± S.D.; for inhibition at 10 µg/mL: read-out: Inhibition (%) Urease, 10µg/mL
T3 construct: purchased Sigma (Germany) Type III, powder, 15,000-50,000 units/g solid
T3 sequence (P07374 whole entry, looked up): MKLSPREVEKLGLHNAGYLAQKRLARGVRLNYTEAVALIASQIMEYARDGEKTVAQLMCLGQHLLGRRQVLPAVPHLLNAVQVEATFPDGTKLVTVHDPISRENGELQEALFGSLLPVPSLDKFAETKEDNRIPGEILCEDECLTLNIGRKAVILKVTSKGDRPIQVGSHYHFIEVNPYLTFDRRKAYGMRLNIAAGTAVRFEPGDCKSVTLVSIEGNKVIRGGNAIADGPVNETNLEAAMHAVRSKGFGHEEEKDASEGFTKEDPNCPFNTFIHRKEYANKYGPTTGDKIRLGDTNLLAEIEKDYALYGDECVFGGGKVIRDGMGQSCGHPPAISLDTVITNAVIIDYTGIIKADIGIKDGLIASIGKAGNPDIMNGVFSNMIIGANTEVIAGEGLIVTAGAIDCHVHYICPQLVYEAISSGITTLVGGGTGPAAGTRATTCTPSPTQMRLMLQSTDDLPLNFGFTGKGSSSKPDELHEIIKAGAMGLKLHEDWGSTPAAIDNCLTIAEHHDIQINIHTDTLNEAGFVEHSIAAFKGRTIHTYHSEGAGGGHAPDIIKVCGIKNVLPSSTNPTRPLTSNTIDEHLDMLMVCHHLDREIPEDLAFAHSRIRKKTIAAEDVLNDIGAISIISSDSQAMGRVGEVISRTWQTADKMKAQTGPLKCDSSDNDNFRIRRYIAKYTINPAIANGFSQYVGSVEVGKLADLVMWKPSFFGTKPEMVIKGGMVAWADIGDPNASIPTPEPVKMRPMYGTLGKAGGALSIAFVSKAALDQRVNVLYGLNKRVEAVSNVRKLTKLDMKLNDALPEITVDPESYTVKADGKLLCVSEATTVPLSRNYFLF
Excerpt: as §1

BChE [3] = system: BChE; set-up: method as in Senol et al (2017); settings: ref Senol et al (2017); cited from earlier work
BChE [4] = system: BChE; set-up: method as in Ramirez et al. ([39]); settings: ref Ramirez et al. ([39]); read-out: IC50 against BChE; cited from earlier work
[5] = 10µg/mL, mean ± S.D. of three measurements, N.A. = not active
[6] = assayed at 100-0.1 µg/mL, mean ± S.D., N.A. = not active, read-out: IC50 AChE (converted)
[7] = read-out: IC50 BChE (converted)

Row | SMILES | Inhibition (%) Tyrosinase (tyrosinase) [%] | IC50 ([1]; IC50 BChE) [µM] | inhibition at 10 µg/mL [1] [%] | inhibition at 10 µg/mL [2, 5] [%] | IC50 [2, 6] [µM] | Equivalent Urease (µg thiourea activity/mg compound) (urease) | inhibition at 10 µg/mL (urease) [%] | IC50 [2] [µM] | other results
1 | O=C(/C=C/c1ccc(O)c(O)c1)O[C@H](Cc1ccc(O)c(O)c1)C(=O)O [Compound 1, Rosmarinic acid] | 12.11±0.02 | 35.4 | 42.76 ± 0.32 | 20.2 ± 0.21 | > 278 |  |  |  | Equivalent Tyrosinase (µg kojic acid activity/mg compound) (tyrosinase): 105.58±0.18 µg kojic acid activity/mg compound
2 | COc1ccc(-c2cc(=O)c3c(O)c(OC)c(OC)cc3o2)cc1 [Compound 2, Salvigenin] |  |  |  | 22.72 ± 0.14 | > 305 |  |  |  | inhibition at 10 µg/mL [1, 5]: 43.13 ± 0.21%; IC50 [1, 7]: 34.9 µM
3 | O=C(/C=C/c1ccc(O)c2c1[C@H](C(=O)O[C@H](Cc1ccc(O)c(O)c1)C(=O)O)[C@@H](c1ccc(O)c(O)c1)O2)O[C@H](Cc1ccc(O)c(O)c1)C(=O)O [Compound 3, Salvianolic acid B] |  | 14.6 |  | 10.11 ± 0.08 |  | 192.26±0.21 µg thiourea activity/mg compou | 49.83 ± 0.27 | > 139 | inhibition at 10 µg/mL [1, 5]: 49.83 ± 0.27%; Inhibition (%) Urease (urease): 45.52±0.68%
4 | O=C(/C=C/c1ccc(O)c(O)c1/C=C/c1ccc(O)c(O)c1)O[C@H](Cc1ccc(O)c(O)c1)C(=O)O [Compound 4, Salvianolic acid A] |  | 97.7 |  | 38.82 ± 0.12 |  |  |  | 46.6 | inhibition at 10 µg/mL [1, 5]: 27.49 ± 0.08%
5 | Cc1coc2c1C(=O)C(=O)c1c-2ccc2c1CCCC2(C)C [Compound 5, Tanshinone IIA] |  |  | 66.3 ± 1.18 |  | > 340 | 16.12±0.01 µg thiourea activity/mg compou | 14.3 ± 0.42 |  | IC50 [1, 7]: 3.8 µM; inhibition at 10 µg/mL [2]: 32.3 ± 0.44%
6 | Cc1cccc2c3c(ccc12)C1=C(C(=O)C3=O)[C@@H](C)CO1 [Compound 6, Dihydrotanshinone I] |  | 1.8 | 87.19 ± 0.23 |  |  |  |  | 5.39 | IC50 value (BChE) (BChE [3]): 1.71 µg/mL (≈ 6.14 µM); inhibition at 10 µg/mL [2]: 64.54 ± 0.36%
7 | Cc1coc2c1C(=O)C(=O)c1c-2ccc2c(C)cccc12 [Compound 7, Tanshinone I] | 39.82±1.16 | 100 | 33 ± 0.86 |  |  | 174.73±0.19 µg thiourea activity/mg compou | 42.4 ± 0.85 | 138 | Equivalent Tyrosinase (µg kojic acid activity/mg compound) (tyrosinase): 372.86±2.47 µg kojic acid activity/mg compound; inhibition at 10 µg/mL [2]: 31.3 ± 0.72%
8 | CC(C)c1cc2c(c(O)c1O)[C@@]1(C(=O)O)CCCC(C)(C)[C@@H]1CC2 [Compound 8, Carnosic Acid] | 5.92±0.06 | 12.4 | 58.5 ± 1.18 | 38 ± 0.96 | 95.7 | 62.12±0.07 µg thiourea activity/mg compou | 22.42 ± 0.15 |  | Equivalent Tyrosinase (µg kojic acid activity/mg compound) (tyrosinase): 45.93±0.71 µg kojic acid activity/mg compound
9 | CC(C)c1cc2c(c(O)c1O)[C@@]13CCCC(C)(C)[C@@H]1C[C@@H]2OC3=O [Compound 9, Carnosol] |  |  |  | 47.6 ± 23 | 33.7 | 26.60±0.03 µg thiourea activity/mg compou | 16.1 ± 0.42 |  | inhibition at 10 µg/mL [1, 5]: 57.99 ± 0.15%; IC50 [1, 7]: 11.9 µM and 12.5 µM; IC50 (BChE [4]): 5.1 µM
10 | C[C@H]1COC2=C1C(=O)C(=O)c1c2ccc2c1CCCC2(C)C [Compound 10, Cryptotanshinone] |  | 95.9 | 35.16 ± 0.27 |  |  | 103.05±0.11 µg thiourea activity/mg compou | 29.7 ± 1.16 | > 337 | inhibition at 10 µg/mL [2]: 17.46 ± 0.11%
11 | O=C(O)C(O)Cc1ccc(O)c(O)c1 (stereo not drawn) [Compound 11, Danshensu Salt] | 6.20±0.08 | 122 | 35.37 ± 0.13 |  |  |  |  |  | Equivalent Tyrosinase (µg kojic acid activity/mg compound) (tyrosinase): 48.67±0.23 µg kojic acid activity/mg compound
12 | COc1ccc2c3c1O[C@H]1C[C@@H](O)C=C[C@@]31CCN(C)C2 [Galanthamine, galanthamine hydrobromide, reference compound] |  |  | 67.52 ± 0.41 |  |  |  |  |  | 
13 | O=c1cc(CO)occ1O [Kojic acid, reference compound] | 69.07±0.38 |  |  |  |  |  |  |  | 
14 | NC(N)=S [Thiourea, thiourea, reference compound] |  |  |  |  |  |  |  |  | Inhibition (%) Urease (urease): 75.14±1.34%
